Columns and labels:
[1] = system: B16-F10 cells; assay: Flow cytometry, surface IFNGR1 on CRISPR-edited cells; type: cell-based, murine; details: for Surface IFNGR1 relative to Parental (Fig. 2c): Parental = 1.00
Description: Parental, CRISPR-edited or biologic-overexpressed tumour cells were seeded in a cell density of 60,000 (B16-F10), 150,000 (CT26), 100,000 (A375), or 200,000 (A549) per well in 12-well plate filled with 0.8 ml culture media + 10% FBS. After overnight incubation, the culture media were replaced with 1 ml fresh media supplemented with 10% FBS and the designated concentration of the recombinant mouse IFNγ (R&D Systems, #485-MI-100) or recombinant human IFNγ (R&D Systems, #285-IF-100). The cells were stimulated with the cytokine for 24 h before they were harvested by trypsinization for flow cytometry, western blot, or qPCR analysis (6 h treatment).
Cells were dissociated from the wells with 0.25% trypsin (Gibco, 25200056). After rinsing with 0.5 ml PBS, each sample was stained with the LIVE/DEAD Fixable Aqua dead cell staining solution (Life Technologies, L34957) in 100 µl PBS (1:1000 dilution) for 15 min at 4 °C. After rinsing with 2 × 0.5 ml PBS, each sample was stained with the corresponding primary antibody-dye conjugates diluted in 100 µl Pharmingen stain buffer (BD Biosciences, #554657). After 1 h staining at 4 °C, the cells were rinsed with 2 × 2 ml Pharmingen stain buffer and fixed with 4.21% (w/w) formaldehyde (BD Biosciences, #554655). Cells were analyzed on LSRFortessa X-20 (BD Biosciences) with appropiate fluorescence compensation. The data were analyzed using FlowJo. Cells were gated based on FSC and SSC. Single cells were selected using FSC-A and FSC-H and viable cells were selected using LIVE/DEAD signal. Primary antibodies used were: H-2K^b/H-2D^b (FITC, Biolegend, #114606, 1:50 dilution), HLA-A,B,C (FITC, Biolegend, #311404, 1:100 dilution), mouse IFNGR1 (PE, Invitrogen, #12-1191-82, 1:50 dilution), human IFNGR1 (PE, Miltenyi, #130-125-851, 1:50 dilution), mouse IL1R1 (APC, Biolegend, #113509, 1:20 dilution), mouse IL6R (APC, Biolegend, #115812, 1:20 dilution), mouse IFNAR1 (APC, Biolegend, #127314, 1:20 dilution), and mouse GP130 (PE, Biolegend, #149404, 1:100 dilution).

[2] = system: PC-3 cells; assay: Growth inhibition, CellTiter-Fluor (live-cell protease activity); type: cell-based, human; set-up: scale not given here; details: 10 ng ml-1 each, 6-day
Description: (§1) Parental and CRISPR-edited tumour cells were seeded in a cell density of 1800 (DU145), 2000 (PC-3), or 10,000 (MCF7) per well in 96-well CellCarrier plate (PelkinElmer, #6005550) filled with 50 µl culture media + 10% FBS. After 20–24 h incubation, the cells were treated with 10 ng ml^−1 of recombinant human IFNγ (R&D Systems, 285-IF-100), 10 ng ml^−1 of recombinant human TNFα (R&D Systems, 210-TA-020/CF) or a combination of both, by adding an equal volume of the complete culture media containing the cytokines. After incubating for 6 days without media change, the CellTiter-Glo 2.0 (Promega, G9243) or CellTiter-Fluor (Promega, G6082) assay were performed according to manufacturer’ instructions. The luminescence or fluorescence (Ex: 380–400 nm, Em: 505 nm) were detected by Inifinte M1000 PRO (Tecan). For CellTiter-Fluor, triplicate wells without cells were included to determine background fluorescence and the signal average was used for background substraction.

[3] = system: DU145 cells; assay: as above; type: cell-based, human; set-up: scale not given here; details: 10 ng ml-1 each, 6-day
Description: as §1

[4] = system: B16-F10 cells; assay: Gene expression profiling with NanoString PanCancer IO 360; type: cell-based, murine; details: Stub1-null B16-F10, 0.03 ng ml^−1 IFNγ, 6 h or 24 h
Description: After overnight incubation, the culture media were replaced with fresh media (DMEM + 10% FBS) supplemented with 0.03 ng ml^−1 of recombinant mouse IFNγ (R&D Systems, #485-MI-100). Total RNA from untreated cells (24 h) and IFNγ-treated cells (6 or 24 h) were extracted with RNeasy plus mini kit (Qiagen, 74134) according to manufacturer’s protocol. An input of 150 ng RNA from each sample was mixed with the NanoString reporter and capture probes (nCounter Mouse PanCancer IO 360, # XT-CSPS-MIO360-12), and incubated at 65 °C for 20 h. The hybridized samples were processed on the nCounter prep station, and the resulting cartridge was scanned by the nCounter digital analyzer using 555 fields of view. Raw count data were evaluated for quality control and normalized with 19 housekeeping genes using nSolver 4.0 software (Supplementary Table S3). Tlk2 was excluded from the housekeeping gene due to weak expression (RNA counts < 80). […] Weakly expressed genes, where the normalized RNA counts were consistently less than 80 in all samples, were excluded from fold change analysis, resulting in an evaluable set of 493 out of 750 genes (Supplementary Fig. 4a). As an overview, all 750 targeted genes were included in the scatter plot analysis (Supplementary Fig. 4b–d).

## gStub1 #1 (guide GCATTGCTAAGAAGAAGCGC; chemistry not given here)
[1]; IFNg 0.01 ng/ml, replicate 1
  Surface IFNGR1 (Fig. 2b): 4507
  Surface IFNGR1 relative to Parental (Fig. 2c): 2.35
[1]; IFNg 0.01 ng/ml, replicate 2
  Surface IFNGR1 (Fig. 2b): 4382
  Surface IFNGR1 relative to Parental (Fig. 2c): 2.34
[1]; IFNg 0.01 ng/ml, replicate 3
  Surface IFNGR1 (Fig. 2b): 3988
  Surface IFNGR1 relative to Parental (Fig. 2c): 2.16
[1]; IFNg 0.03 ng/ml, replicate 1
  Surface IFNGR1 (Fig. 2b): 4026
  Surface IFNGR1 relative to Parental (Fig. 2c): 1.83
[1]; IFNg 0.03 ng/ml, replicate 2
  Surface IFNGR1 (Fig. 2b): 3680
  Surface IFNGR1 relative to Parental (Fig. 2c): 1.69
[1]; IFNg 0.03 ng/ml, replicate 3
  Surface IFNGR1 (Fig. 2b): 3566
  Surface IFNGR1 relative to Parental (Fig. 2c): 2.17
[1]; IFNg 0.10 ng/ml, replicate 1
  Surface IFNGR1 (Fig. 2b): 4027
  Surface IFNGR1 relative to Parental (Fig. 2c): 2.07
[1]; IFNg 0.10 ng/ml, replicate 2
  Surface IFNGR1 (Fig. 2b): 3862
  Surface IFNGR1 relative to Parental (Fig. 2c): 2.28
[1]; IFNg 0.10 ng/ml, replicate 3
  Surface IFNGR1 (Fig. 2b): 3601
  Surface IFNGR1 relative to Parental (Fig. 2c): 2.06
[1]; IFNg 0.30 ng/ml, replicate 1
  Surface IFNGR1 (Fig. 2b): 3595
  Surface IFNGR1 relative to Parental (Fig. 2c): 1.70
[1]; IFNg 0.30 ng/ml, replicate 2
  Surface IFNGR1 (Fig. 2b): 3609
  Surface IFNGR1 relative to Parental (Fig. 2c): 2.03
[1]; IFNg 0.30 ng/ml, replicate 3
  Surface IFNGR1 (Fig. 2b): 3263
  Surface IFNGR1 relative to Parental (Fig. 2c): 1.89
[1]; IFNg 1.00 ng/ml, replicate 1
  Surface IFNGR1 (Fig. 2b): 3107
  Surface IFNGR1 relative to Parental (Fig. 2c): 1.68
[1]; IFNg 1.00 ng/ml, replicate 2
  Surface IFNGR1 (Fig. 2b): 3061
  Surface IFNGR1 relative to Parental (Fig. 2c): 1.74
[1]; IFNg 1.00 ng/ml, replicate 3
  Surface IFNGR1 (Fig. 2b): 2676
  Surface IFNGR1 relative to Parental (Fig. 2c): 1.66
[1]; IFNg Nil, replicate 1
  Surface IFNGR1 (Fig. 2b): 4564
  Surface IFNGR1 relative to Parental (Fig. 2c): 2.27
[1]; IFNg Nil, replicate 2
  Surface IFNGR1 (Fig. 2b): 4378
  Surface IFNGR1 relative to Parental (Fig. 2c): 2.36
[1]; IFNg Nil, replicate 3
  Surface IFNGR1 (Fig. 2b): 4200
  Surface IFNGR1 relative to Parental (Fig. 2c): 2.25

## IFNγ
[2]; PC-3 PTPN2 sgRNA, replicate 1
  FC in live-cell protease activity relative to parental cells: -0.90
[2]; PC-3 PTPN2 sgRNA, replicate 2
  FC in live-cell protease activity relative to parental cells: -0.39
[2]; PC-3 PTPN2 sgRNA, replicate 3
  FC in live-cell protease activity relative to parental cells: -0.44
[2]; PC-3 Parental, replicate 1
  FC in live-cell protease activity relative to parental cells: 0.02
[2]; PC-3 Parental, replicate 2
  FC in live-cell protease activity relative to parental cells: -0.11
[2]; PC-3 Parental, replicate 3
  FC in live-cell protease activity relative to parental cells: 0.09
[2]; PC-3 STUB1 sgRNA, replicate 1
  FC in live-cell protease activity relative to parental cells: -0.57
[2]; PC-3 STUB1 sgRNA, replicate 2
  FC in live-cell protease activity relative to parental cells: -0.73
[2]; PC-3 STUB1 sgRNA, replicate 3
  FC in live-cell protease activity relative to parental cells: -0.72
[2]; PC-3 control sgRNA, replicate 1
  FC in live-cell protease activity relative to parental cells: 0.0759
[2]; PC-3 control sgRNA, replicate 2
  FC in live-cell protease activity relative to parental cells: -0.0157
[2]; PC-3 control sgRNA, replicate 3
  FC in live-cell protease activity relative to parental cells: -0.15
[3]; DU145 PTPN2 sgRNA, replicate 1
  FC in live-cell protease activity relative to parental cells: -0.09
[3]; DU145 PTPN2 sgRNA, replicate 2
  FC in live-cell protease activity relative to parental cells: -0.0242
[3]; DU145 PTPN2 sgRNA, replicate 3
  FC in live-cell protease activity relative to parental cells: 0.13
[3]; DU145 Parental, replicate 1
  FC in live-cell protease activity relative to parental cells: -0.028
[3]; DU145 Parental, replicate 2
  FC in live-cell protease activity relative to parental cells: -0.0441
[3]; DU145 Parental, replicate 3
  FC in live-cell protease activity relative to parental cells: 0.07
[3]; DU145 STUB1 sgRNA, replicate 1
  FC in live-cell protease activity relative to parental cells: -0.68
[3]; DU145 STUB1 sgRNA, replicate 2
  FC in live-cell protease activity relative to parental cells: -0.65
[3]; DU145 STUB1 sgRNA, replicate 3
  FC in live-cell protease activity relative to parental cells: -0.52
[3]; DU145 control sgRNA, replicate 1
  FC in live-cell protease activity relative to parental cells: 0.0364
[3]; DU145 control sgRNA, replicate 2
  FC in live-cell protease activity relative to parental cells: 0.13
[3]; DU145 control sgRNA, replicate 3
  FC in live-cell protease activity relative to parental cells: 0.0663
[1]; B16-F10, 24 h
  Cell surface IFNGR1 with increasing IFNγ: declined with increasing IFNγ concentration
[4]
  Induction of interferon-stimulated genes: enhanced response to IFNγ treatment

From PMC9388626, “STUB1 is an intracellular checkpoint for interferon gamma sensing” (Scientific Reports, 2022)
